Consider eight compounds from patent publication US12391679B2, “Benzamide-substituted bicyclic imidazo- and pyrazolo-fused -pyridine, -pyrimide, and -pyridazine compounds for treatment of inflammatory diseases” (ONCO3R Therapeutics BV, priority 2019, dated 2025).

Where only a bound is given, the exact number is not on record here.

The target of one test is T1, SIK1 (Homo sapiens, UniProt P57059).
T1 construct: purchased Carna Biosciences 02-131
The test can be described thus: ADP-Glo kinase assay, SIK1. It is filed as biochemical. In short, it runs like this:
(§1)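 Steps: add enzyme–substrate mixture; start with diluted ATP; incubate RT 120 min; add ADP-Glo Reagent to terminate and remove unconsumed ATP, 40 min; add detection reagent, 30 min; read luminescence. DMSO at 1% and staurosporine at 10 μM (final) define assay windows.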

Another test deals with T2, SIK2 (Homo sapiens, UniProt Q9H0K1).
T2 construct: purchased ThermoFisher Scientific PV4792
The test can be described thus: ADP-Glo kinase assay, SIK2. The class given is biochemical. The method in brief: as §1

In a further test the target is T3, SIK3 (Homo sapiens, UniProt Q9Y2K2).
T3 construct: purchased SignalChem S12-11G-100
The experiment in a line: ADP-Glo kinase assay, SIK3. It is filed as biochemical. In short, it runs like this: as §1

The test system of test [1] is LPS-induced TNFα in monocytes. The test can be described thus: Monocytes assay: LPS-triggered TNFα (ELISA). The class given is cell-based, human. As to conditions: Homo sapiens, Monocyte, LPS-triggered TNFα inhibition. The method in brief: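 TNFα secretion was triggered with 200 ng/mL LPS for 4 h in human blood CD14+ monocytes after 1 h compound pretreatment at 37 °C, with 0.2% final DMSO. Supernatants were analysed by streptavidin-HRP/luminol ELISA, and percentage inhibition at each concentration was derived relative to control wells.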

Test [2] relates to LPS triggered IL-10 secretion in monocytes. The test can be described thus: Monocytes assay: LPS-triggered IL-10 (ELISA). It is filed as cell-based, human. Conditions: Homo sapiens, Monocyte, LPS-triggered IL-10 induction, median maximal fold change vs LPS only, read-out: IL-10 FCmax median. As for the experimental part: This assay evaluates illustrative compounds of the invention for their inhibition of LPS-induced TNFα and LPS triggered IL-10 secretion in monocytes.
PBMCs are isolated from human blood samples (buffycoats). The buffy coat is aseptically transferred into a 50 mL Falcon tube, and diluted 1/2 in PBS. Falcon tubes are filled with 20 mL Lymphoprep™, on top of which 25 mL of the buffy coat is carefully added, tubes are centrifuged for 35 min at 400 g in temperature controlled centrifuge, without brake, at 25° C. PBMCs are aspirated from the white interface layer between sample and Lymphoprep™. PBMCs are washed five times in PBS.
PBMCs are centrifuged at 300×g for 10 min and resuspended at a density of 1.0*10^7 cells/80 μL Miltenyi buffer (PBS, pH 7.4, 1% FBS, 2 mM EDTA).
Starting from this point of the protocol all steps are performed on ice. 20 μL of CD14+ micro-beads are added per 1.0*10^7 cells, the tube is mixed and incubated for 15 min in the fridge at 4° C. Cell suspension volume is adjusted to total volume of 100 mL using Miltenyi buffer, mixed gently and subsequently centrifuged for 10 min at 300×g. Supernatant is discarded and cell pellet is resuspended in 12 mL of Miltenyi buffer.
Four LS columns are placed in the MACS Separator (magnet) from Miltenyi Biotec, and are prewet by rinsing with 3 mL of MACS buffer per column. Three mL of cell suspension is added onto the column (max 1*10^8 of labelled cells/column), and columns are subsequently washed 3 times with 3 mL of Miltenyi buffer.
The columns are removed from the magnets, and 5 mL of Miltenyi buffer are added to the column to flush out the CD14+ fraction by pushing the plunger into the column. The flushed fractions are collected in a fresh 50 mL Falcon and volume is adjusted to 30 mL using Miltenyi buffer, cells are centrifuged for 10 min at 300×g. The obtained cell pellet is resuspended in 10 mL RPMI w/o FBS, and cell density is determined using a hematologic analyser (Sysmex XS-500i).
A compound dilution plate is made in 100% DMSO by 3-fold dilution of 10 mM stock solution. An intermediate dilution plate (10× final concentration) is made by diluting the compound dilution plate 50-fold in RPMI medium.
10 μL of the 10× final concentration compound is added to the cells and incubated for 1 h at 37° C. before addition of trigger. No trigger conditions/trigger conditions are spiked with equal final DMSO concentrations of 0.2% DMSO. 10 μL of 10×LPS (final conc. 200 ng/mL) solution are added to all wells except for the ‘no trigger wells’ where 10 μL medium is added. Supernatant is collected after 4 h of LPS triggering.
A Lumitrac 600 Greiner 384-well plate is coated with 40 μL of capture antibody (final concentration of 1 μg/mL in 1×PBS) and stored overnight at 4° C. The next day the plate is washed three times with PBST (PBS+0.05% Tween20) and once with PBS followed by the addition of 100 μL of blocking buffer (1% BSA-5% Sucrose) and plates are sealed and incubated for at least 4 h at RT. After washing the plate once with PBST and once with PBS, 40 μL of standard or sample are added (IL-10 standard curve is prepared using a 1/2 serial dilution starting from 2000 pg/mL; dilutions are made in dilution buffer (PBS+1% BSA)). […] Plates are washed twice with PBST, and once with PBS, whereafter 35 μL of Strep-HRP conjugate (0.5 μg/mL final concentration diluted in dilution buffer) is added. Plates are incubated in the dark, at RT for at least 45 min but no longer than 1 h. Plates are washed twice with PBST, and once with PBS. Thereafter, 50 μL of luminol substrate is added to each well (prepared according to manufacturer's instructions), and incubated for 5 min at RT protected from light.
To quantify these increases, fold changes (FC) compared to ‘LPS only’ are calculated for each concentration tested and the maximal FC is calculated (IL-10 FCmax): […]

Test [3] concerns LPS-induced TNFα in monocyte-derived macrophages. The test can be described thus: MdM assay: LPS-triggered TNFα (ELISA). It is filed as cell-based, human. As to conditions: Macrophage; human MdM; LPS 200 ng/mL; supernatant after 20 h; inhibition of TNFα; read-out: TNFα EC50. As for the experimental part: This assay evaluates illustrative compounds of the invention for their inhibition of LPS-induced TNFα and LPS triggered IL-10 secretion in monocyte-derived macrophages. PBMCs are isolated from human blood samples (buffycoats). The buffy coat is aseptically transferred into a 50 mL Falcon tube, and diluted 1/2 in PBS. Falcon tubes are filled with 20 mL LymphoprepTM, on top of which 25 mL of the buffy coat is carefully added, tubes are centrifuged for 35 min at 400 g in temperature controlled centrifuge, without brake, at 25° C. PBMCs are aspirated from the white interface layer between sample and LymphoprepTM. PBMCs are washed five times in PBS. […] PBMCs are centrifuged at 300×g for 10 min and resuspended at a density of 1.0*10^7 cells/80 μL Miltenyi buffer (PBS, pH 7.4, 1% FBS, 2 mM EDTA). Starting from this point of the protocol all steps are performed on ice. 20 μL of CD14+ micro-beads are added per 1.0*10^7 cells, the tube is mixed and incubated for 15 min in the fridge at 4° C. Cell suspension volume is adjusted to total volume of 100 mL using Miltenyi buffer, mixed gently and subsequently centrifuged for 10 min at 300×g. Supernatant is discarded and cell pellet is resuspended in 12 mL of Miltenyi buffer. Four LS columns are placed in the MACS Separator (magnet) from Miltenyi Biotec, and are prewet by rinsing with 3 mL of MACS buffer per column. Three mL of cell suspension is added onto the column (max 1*10^8 of labelled cells/column), and columns are subsequently washed 3 times with 3 mL of Miltenyi buffer. The columns are removed from the magnets, and 5 mL of Miltenyi buffer are added to the column to flush out the CD14+ fraction by pushing the plunger into the column. The flushed fractions are collected in a fresh 50 mL Falcon and volume is adjusted to 30 mL using Miltenyi buffer, cells are centrifuged for 10 min at 300×g. The obtained cell pellet is resuspended in 10 mL RPMI w/o FBS, and cell density is determined using a hematologic analyser (Sysmex XS-500i). […] On day 10, MdMs are triggered and compound is added. A compound dilution plate is made in 100% DMSO by 3-fold dilution of 10 mM stock solution. An intermediate dilution plate (10× final concentration) is made by diluting the compound dilution plate […] in RPMI medium. Medium is carefully removed from cell plates using multichannel pipette, and replaced by 80 μL fresh medium. 10 μL of the 10× final concentration compound is added to the cells and incubated for 1 hour at 37° C. before addition of trigger. No trigger conditions/trigger conditions are spiked with equal final DMSO concentrations of 0.2% DMSO. 10 μL of 10×LPS (final conc. 200 ng/mL) solution are added to all wells except for the 'no trigger wells' where 10 μL medium is added. Supernatant is collected after 2 h (IL-10 determination) and after 20 h (TNFα determination) of LPS triggering. […] The plate is then washed once with PBST (PBS+0.05% Tween20) and once with PBS followed by the addition of 100 μL of blocking buffer (1% Bovine Serum Albumin (BSA) -5% Sucrose) and plates are sealed and incubated for at least 4 h at RT. After washing the plate once with PBST and once with PBS, 40 μL of standard or sample are added (TNFα standard curve is prepared using a 1/2 serial dilution starting from 16000 pg/mL; dilutions are made in dilution buffer (PBS+1% BSA)). Plates are washed twice with PBST, and once with PBS, after which 35 μL of the detection antibody is added (final concentration 0.25 μg/mL diluted in dilution buffer) and plates are incubated for at least 2 h at RT. Plates are washed twice with PBST, and once with PBS, where after 35 μL of Strep-HRP conjugate (0.5 μg/mL final concentration diluted in dilution buffer) is added. […] Plates are washed twice with PBST, and once with PBS. Thereafter, 50 μL of luminol substrate is added to each well (prepared according to manufacturer's instructions), and incubated for 5 min at RT protected from light.

T2 sequence (Q9H0K1 whole entry): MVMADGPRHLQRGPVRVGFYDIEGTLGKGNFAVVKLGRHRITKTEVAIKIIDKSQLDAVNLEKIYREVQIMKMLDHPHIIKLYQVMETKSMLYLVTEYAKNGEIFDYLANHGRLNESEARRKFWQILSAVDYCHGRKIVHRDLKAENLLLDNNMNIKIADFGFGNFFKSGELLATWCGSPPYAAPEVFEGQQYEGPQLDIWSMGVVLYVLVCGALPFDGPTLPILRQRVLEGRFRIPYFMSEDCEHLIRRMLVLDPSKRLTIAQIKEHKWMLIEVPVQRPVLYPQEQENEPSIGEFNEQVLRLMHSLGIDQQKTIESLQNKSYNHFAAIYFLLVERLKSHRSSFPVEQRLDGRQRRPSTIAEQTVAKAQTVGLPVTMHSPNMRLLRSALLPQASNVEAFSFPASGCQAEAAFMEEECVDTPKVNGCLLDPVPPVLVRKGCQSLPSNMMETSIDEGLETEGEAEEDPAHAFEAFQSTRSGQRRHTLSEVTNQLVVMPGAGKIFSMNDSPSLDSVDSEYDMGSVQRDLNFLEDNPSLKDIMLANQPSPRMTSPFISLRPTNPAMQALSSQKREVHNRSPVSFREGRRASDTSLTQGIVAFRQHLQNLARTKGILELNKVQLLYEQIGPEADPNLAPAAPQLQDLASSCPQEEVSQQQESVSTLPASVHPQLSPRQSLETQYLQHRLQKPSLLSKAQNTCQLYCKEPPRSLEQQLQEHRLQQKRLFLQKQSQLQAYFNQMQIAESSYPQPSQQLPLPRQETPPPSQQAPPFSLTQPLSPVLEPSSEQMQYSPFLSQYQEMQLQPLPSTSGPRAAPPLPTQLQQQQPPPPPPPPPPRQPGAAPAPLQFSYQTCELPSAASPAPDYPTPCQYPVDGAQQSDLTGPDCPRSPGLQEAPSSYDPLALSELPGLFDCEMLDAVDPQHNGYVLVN
T3 sequence (Q9Y2K2 59-365 limits assumed): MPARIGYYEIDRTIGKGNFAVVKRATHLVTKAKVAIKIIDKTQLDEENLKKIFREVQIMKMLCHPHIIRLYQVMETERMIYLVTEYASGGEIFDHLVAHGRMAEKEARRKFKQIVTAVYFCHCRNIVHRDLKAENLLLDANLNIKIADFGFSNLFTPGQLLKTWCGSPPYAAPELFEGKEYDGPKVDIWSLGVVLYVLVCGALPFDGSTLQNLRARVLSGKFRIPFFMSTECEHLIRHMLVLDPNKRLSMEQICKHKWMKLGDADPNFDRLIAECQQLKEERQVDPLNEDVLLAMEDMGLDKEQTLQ
T1 sequence (P57059 whole entry): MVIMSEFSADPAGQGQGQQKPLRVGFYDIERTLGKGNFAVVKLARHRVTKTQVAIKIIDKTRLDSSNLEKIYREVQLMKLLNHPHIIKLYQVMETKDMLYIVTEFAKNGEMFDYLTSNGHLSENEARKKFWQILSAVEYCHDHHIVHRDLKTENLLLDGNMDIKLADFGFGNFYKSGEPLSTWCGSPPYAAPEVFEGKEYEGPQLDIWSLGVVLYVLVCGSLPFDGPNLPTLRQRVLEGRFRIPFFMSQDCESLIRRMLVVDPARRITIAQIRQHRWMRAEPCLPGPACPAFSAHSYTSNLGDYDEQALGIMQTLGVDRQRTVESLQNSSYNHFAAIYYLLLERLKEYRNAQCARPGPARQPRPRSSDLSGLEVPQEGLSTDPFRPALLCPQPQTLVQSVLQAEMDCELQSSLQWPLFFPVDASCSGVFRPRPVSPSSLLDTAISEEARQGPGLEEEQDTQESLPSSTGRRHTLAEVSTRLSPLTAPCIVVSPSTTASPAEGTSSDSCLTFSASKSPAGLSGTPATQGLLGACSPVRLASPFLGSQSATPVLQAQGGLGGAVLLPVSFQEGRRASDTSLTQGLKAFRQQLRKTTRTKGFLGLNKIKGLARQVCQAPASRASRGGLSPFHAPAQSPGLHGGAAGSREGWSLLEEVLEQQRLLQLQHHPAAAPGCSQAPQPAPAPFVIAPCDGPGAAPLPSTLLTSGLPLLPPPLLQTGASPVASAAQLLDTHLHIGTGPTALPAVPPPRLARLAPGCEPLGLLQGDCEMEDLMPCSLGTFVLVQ

As for `COc1cc(-c2cnc3cc(C(C)(O)Cn4ccnc4)ccn23)cc(OC(F)F)c1C(=O)NC1CC1` (stereo not drawn) [Cpd 181, N-cyclopropyl-2-(difluoromethoxy)-4-[7-(1-hydroxy-2-imidazol-1-yl-1-methyl-ethyl)imidazo[1,2-a]pyridin-3-yl]-6-methoxy-benzamide], the figures for the IC50 against SIK1, at SIK2 and against SIK3 were above 500 nM, above 500 nM and 10 to 100 nM, respectively. The same compound came in with an EC50 in test [1] of 1000 to 5000 nM. The maximal fold induction in test [2] was below 1.5.
For the compound `COc1cc(-c2cnn3cc(C(C)(C)C#N)ccc23)cc(OC(F)F)c1C(=O)N[C@H]1C[C@H]1F` [Cpd 234, 4-[6-(1-cyano-1-methyl-ethyl)pyrazolo[1,5-a]pyridin-3-yl]-2-(difluoromethoxy)-N-[(1S,2R)-2-fluorocyclopropyl]-6-methoxy-benzamide], the 50% effective concentration (EC50) in test [1] is 100 to 1000 nM. In addition, the maximal fold induction in test [2] is below 1.5.
On to `COc1cc(-c2cnc3cc(C4CCOCC4)c(OCCO)cn23)cc(OC(F)F)c1C(=O)NC1CC1` [Cpd 183, N-cyclopropyl-2-(difluoromethoxy)-4-[6-(2-hydroxyethoxy)-7-tetrahydropyran-4-yl-imidazo[1,2-a]pyridin-3-yl]-6-methoxy-benzamide], for which the concentration for half-maximal inhibition (IC50) against SIK1 is above 500 nM; on SIK2 it was 100 to 500 nM; against SIK3, 10 to 100 nM. In test [1], this compound gave an EC50 of 1000 to 5000 nM. In addition, the maximal fold induction in test [2] is below 1.5.
For `COc1cc(-c2cnc3cc(C(C)(C)C#N)ccn23)cc(OC(F)F)c1C(=O)N[C@@H]1C[C@H]1F` (racemic) [Cpd 225, 4-[7-(1-cyano-1-methyl-ethyl)imidazo[1,2-a]pyridin-3-yl]-2-(difluoromethoxy)-N-(2-fluorocyclopropyl)-6-methoxy-benzamide] the same measures were above 500 nM, above 500 nM, 0.01 to 10 nM, 100 to 1000 nM and below 1.5.
For `COc1cc(-c2cnc3cc(C4(O)COC4)ccn23)cc(OC(F)F)c1C(=O)NC1CC1` [Cpd 177, N-cyclopropyl-2-(difluoromethoxy)-4-[7-(3-hydroxyoxetan-3-yl)imidazo[1,2-a]pyridin-3-yl]-6-methoxy-benzamide] the same measures were above 500 nM, above 500 nM, 10 to 100 nM, 100 to 1000 nM and below 1.5.
For `COCC(C)(C)c1ccc2c(-c3cc(OC)c(C(=O)NC4CC4)c(OC(F)F)c3)cnn2c1` [Cpd 238, N-cyclopropyl-2-(difluoromethoxy)-6-methoxy-4-[6-(2-methoxy-1,1-dimethyl-ethyl)pyrazolo[1,5-a]pyridin-3-yl]benzamide] the same measures were above 500 nM, above 500 nM, 10 to 100 nM, 100 to 1000 nM and below 1.5.
Turning to `COc1cc(-c2cnc3cc(C4(C#N)CCCC4)ccn23)cc(OC(F)F)c1C(=O)NC1CC1` [Cpd 53, 4-[7-(1-cyanocyclopentyl)imidazo[1,2-a]pyridin-3-yl]-N-cyclopropyl-2-(difluoromethoxy)-6-methoxy-benzamide], the values for the concentration for half-maximal inhibition (IC50) on SIK1, against SIK2 and on SIK3 were above 500 nM, above 500 nM and 0.01 to 10 nM, respectively. In test [3], the EC50 was in the range of 100 to 1000 nM.
In test [1], `COc1cc(-c2cnn3cc(C(C)(C)C#N)ccc23)cc(OC(F)F)c1C(=O)N[C@@H]1C[C@@H]1F` (racemic) [Cpd 233, 4-[6-(1-cyano-1-methyl-ethyl)pyrazolo[1,5-a]pyridin-3-yl]-2-(difluoromethoxy)-N-(2-fluorocyclopropyl)-6-methoxy-benzamide] showed a concentration for a half-maximal effect (EC50) of 100 to 1000 nM. Besides, the maximal fold induction in test [2] is below 1.5.
